Test: xn = mol fraction of the nth substance listed
Conditions: 363.15 K, Liquid, Vibrating tube method

CCCCCCCC [octane] + CCCO
Conditions | mass density [kg/m3]
5000 kPa, x2 = 0.3158 | 656.03
5000 kPa, x2 = 0.7301 | 691.49
5010 kPa, x2 = 0.1631 | 650.29
5010 kPa, x2 = 0.8823 | 716.99
5020 kPa, x2 = 0.4411 | 663.46
6000 kPa, x2 = 0.8823 | 718.21
6010 kPa, x2 = 0.1631 | 651.6
6010 kPa, x2 = 0.2111 | 653.06
6020 kPa, x2 = 0.3158 | 657.34
6020 kPa, x2 = 0.4411 | 664.8
6020 kPa, x2 = 0.7301 | 692.76
7000 kPa, x2 = 0.1631 | 652.93
7000 kPa, x2 = 0.3158 | 658.67
7000 kPa, x2 = 0.4411 | 666.13
7010 kPa, x2 = 0.2111 | 654.35
7020 kPa, x2 = 0.7301 | 694.08
7020 kPa, x2 = 0.8823 | 719.45
8000 kPa, x2 = 0.3158 | 660
8010 kPa, x2 = 0.1631 | 654.22
8010 kPa, x2 = 0.2111 | 655.68
8010 kPa, x2 = 0.8823 | 720.66
8020 kPa, x2 = 0.4411 | 667.45
8020 kPa, x2 = 0.7301 | 695.38
9000 kPa, x2 = 0.1631 | 655.49
9000 kPa, x2 = 0.8823 | 721.91
9010 kPa, x2 = 0.3158 | 661.3
9010 kPa, x2 = 0.4411 | 668.75
9010 kPa, x2 = 0.7301 | 696.66
9020 kPa, x2 = 0.2111 | 656.97
10000 kPa, x2 = 0.1631 | 656.77
10000 kPa, x2 = 0.4411 | 670.08
10010 kPa, x2 = 0.2111 | 658.25
10010 kPa, x2 = 0.8823 | 723.12
10020 kPa, x2 = 0.3158 | 662.62
10020 kPa, x2 = 0.7301 | 697.93
11000 kPa, x2 = 0.1631 | 658.05
11000 kPa, x2 = 0.4411 | 671.35
11010 kPa, x2 = 0.2111 | 659.52
11010 kPa, x2 = 0.3158 | 663.89
11010 kPa, x2 = 0.7301 | 699.17
11020 kPa, x2 = 0.8823 | 724.31
12000 kPa, x2 = 0.1631 | 659.27
12000 kPa, x2 = 0.8823 | 725.46
12010 kPa, x2 = 0.2111 | 660.8
12010 kPa, x2 = 0.3158 | 665.14
12020 kPa, x2 = 0.4411 | 672.6
12020 kPa, x2 = 0.7301 | 700.4
13000 kPa, x2 = 0.3158 | 666.41
13000 kPa, x2 = 0.4411 | 673.84
13000 kPa, x2 = 0.8823 | 726.58
13010 kPa, x2 = 0.1631 | 660.51
13010 kPa, x2 = 0.2111 | 662.01
13010 kPa, x2 = 0.7301 | 701.64
14010 kPa, x2 = 0.1631 | 661.7
14010 kPa, x2 = 0.2111 | 663.23
14010 kPa, x2 = 0.3158 | 667.62
14010 kPa, x2 = 0.7301 | 702.82
14020 kPa, x2 = 0.4411 | 675.08
14020 kPa, x2 = 0.8823 | 727.76
15000 kPa, x2 = 0.8823 | 728.85
15010 kPa, x2 = 0.1631 | 662.89
15010 kPa, x2 = 0.4411 | 676.25
15010 kPa, x2 = 0.7301 | 704
15020 kPa, x2 = 0.2111 | 664.4
15020 kPa, x2 = 0.3158 | 668.79
16000 kPa, x2 = 0.3158 | 669.98
16000 kPa, x2 = 0.8823 | 729.97
16010 kPa, x2 = 0.2111 | 665.57
16010 kPa, x2 = 0.7301 | 705.17
16020 kPa, x2 = 0.1631 | 664
16020 kPa, x2 = 0.4411 | 677.45
17000 kPa, x2 = 0.7301 | 706.32
17000 kPa, x2 = 0.8823 | 731.02
17010 kPa, x2 = 0.1631 | 665.15
17010 kPa, x2 = 0.3158 | 671.18
17010 kPa, x2 = 0.4411 | 678.56
17020 kPa, x2 = 0.2111 | 666.77
18000 kPa, x2 = 0.8823 | 732.11
18010 kPa, x2 = 0.3158 | 672.26
18010 kPa, x2 = 0.4411 | 679.72
18020 kPa, x2 = 0.1631 | 666.27
18020 kPa, x2 = 0.2111 | 667.86
18020 kPa, x2 = 0.7301 | 707.41
19000 kPa, x2 = 0.1631 | 667.34
19000 kPa, x2 = 0.4411 | 680.79
19000 kPa, x2 = 0.8823 | 733.13
19010 kPa, x2 = 0.2111 | 668.92
19010 kPa, x2 = 0.3158 | 673.36
19010 kPa, x2 = 0.7301 | 708.47
20010 kPa, x2 = 0.1631 | 668.36
20010 kPa, x2 = 0.2111 | 669.97
20010 kPa, x2 = 0.3158 | 674.4
20020 kPa, x2 = 0.4411 | 681.9
20020 kPa, x2 = 0.7301 | 709.58
20020 kPa, x2 = 0.8823 | 734.15

From the NIST ThermoML archive (doi:10.1021/acs.jced.8b00554)
